Read-outs that look alike come from different tables or passages of the source.
Experiments:
Experiment in all cases: Ras GTP binding domain inhibition assay (labeled-GTP competition, cell-free)
[1] = target: T1, KRas Q61H mutant (Homo sapiens, UniProt P01116, Q61H); details: at 20 μM
T1 construct: made in house
How it was run: (§1)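 His-tagged GTPases were coated at 10-30 μg/mL onto nickel plates overnight at 4° C, then exposed to compound (20 μM, or serial dilutions for IC50) in buffer with 1% DMSO for 3 h at room temperature, with or without 10-30 μg/mL His-Sos (556-1049) in the final hour. Cy3- or Cy5-GTP (100 nM, 45 min) binding was measured after washing.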

[2] = target: T2, KRas G12D mutant (Homo sapiens, UniProt P01116, G12D)
T2 construct: made in house
How it was run: as §1

[3] = target: T3, KRas G12C mutant (Homo sapiens, UniProt P01116, G12C)
T3 construct: made in house
How it was run: as §1

[4] = target: KRas wild type (Homo sapiens, UniProt P01116); parameters: made in house
How it was run: as §1

[5] = target: Rho-A (Homo sapiens, UniProt P61586); parameters: made in house
How it was run: as §1

[6] = target: Rac-1 (Homo sapiens, UniProt P63000); parameters: made in house
How it was run: as §1

[7] = with SOS, read-out: KRas Q61H mutant + SOS: % inh.
[8] = without SOS, read-out: KRas Q61H mutant: % inh.
[9] = with SOS, read-out: KRas G12D mutant + SOS: % inh.
[10] = without SOS, read-out: KRas G12D mutant: % inh.
[11] = with SOS, read-out: KRas G12C mutant + SOS: % inh.
[12] = without SOS, read-out: KRas G12C mutant: % inh.
[13] = with SOS, read-out: KRas wild type + SOS: % inh.
[14] = without SOS, read-out: KRas wild type: % inh.
[15] = with SOS, read-out: Rho-A + SOS: % inh.
[16] = without SOS, read-out: Rho-A: % inh.
[17] = with SOS, read-out: Rac-1 + SOS: % inh.
[18] = without SOS, read-out: Rac-1: % inh.

SMILES | inhibition at 20 µM [1, 7] [%] | inhibition at 20 µM [1, 8] [%] | inhibition at 20 µM [2, 9] [%] | inhibition at 20 µM [2, 10] [%] | inhibition at 20 µM [3, 11] [%] | inhibition at 20 µM [3, 12] [%] | inhibition at 20 µM [4, 13] [%] | inhibition at 20 µM [4, 14] [%] | inhibition at 20 µM [5, 15] [%] | inhibition at 20 µM [5, 16] [%] | inhibition at 20 µM [6, 17] [%] | inhibition at 20 µM [6, 18] [%]
CO[C@H]1C[C@@H](CNc2nc(-c3nccn3C)nc3sc(-c4ccn(C(C)C)n4)c(C)c23)C1 [Compound 47, 6-(1-Isopropyl-1H-pyrazol-3-yl)-N-(((1s,3s)-3-methoxycyclobutyl)methyl)-5-methyl-2-(1-methyl-1H-imidazol-2-yl)thieno[2,3-d]pyrimidin-4-amine] | 76 to 100 | 51 to 75 | 51 to 75 | 51 to 75 | 76 to 100 | 51 to 75 | 76 to 100 | 76 to 100 | 76 to 100 | 76 to 100 | 51 to 75 | 51 to 75
CO[C@H]1C[C@H](CNc2nc(-c3nccn3C)nc3sc(-c4ccn(C(C)C)n4)c(C)c23)C1 [Compound 48, 6-(1-Isopropyl-1H-pyrazol-3-yl)-N-(((1r,3r)-3-methoxycyclobutyl)methyl)-5-methyl-2-(1-methyl-1H-imidazol-2-yl)thieno[2,3-d]pyrimidin-4-amine] | 51 to 75 | 51 to 75 | 51 to 75 | 26 to 50 | 51 to 75 | 51 to 75 | 51 to 75 | 76 to 100 | 76 to 100 | 51 to 75 | 26 to 50 | 26 to 50
CO[C@H]1CCCN(c2nc(-c3nccn3C)nc3sc(-c4ccn(C(C)C)n4)c(C)c23)C1 [Compound 49, (S)-6-(1-Isopropyl-1H-pyrazol-3-yl)-4-(3-methoxypiperidin-1-yl)-5-methyl-2-(1-methyl-1H-imidazol-2-yl)thieno[2,3-d]pyrimidine] | 51 to 75 | 51 to 75 | 26 to 50 | 0 | 51 to 75 | 1 to 25 | 76 to 100 | 51 to 75 |  | 51 to 75 |  | 26 to 50
CO[C@@H]1CCCN(c2nc(-c3nccn3C)nc3sc(-c4ccn(C(C)C)n4)c(C)c23)C1 [Compound 50, (R)-6-(1-Isopropyl-1H-pyrazol-3-yl)-4-(3-methoxypiperidin-1-yl)-5-methyl-2-(1-methyl-1H-imidazol-2-yl)thieno[2,3-d]pyrimidine] | 51 to 75 | 26 to 50 | 1 to 25 | 0 | 51 to 75 | 26 to 50 | 51 to 75 | 51 to 75 |  | 76 to 100 |  | 0
Cc1c(-c2ccn(C(C)C)n2)sc2nc(-c3nccn3C)nc(NC[C@@H]3CCC(=O)N3)c12 [Compound 51] | 51 to 75 | 51 to 75 | 51 to 75 | 26 to 50 | 26 to 50 | 51 to 75 | 51 to 75 | 51 to 75 |  | 76 to 100 |  | 51 to 75
Cc1c(-c2ccn(C(C)C)n2)sc2nc(-c3nccn3C)nc(NC[C@H]3CCC(=O)N3)c12 [Compound 52, (R)-5-(((6-(1-Isopropyl-1H-pyrazol-3-yl)-5-methyl-2-(1-methyl-1H-imidazol-2-yl)thieno[2,3-d]pyrimidin-4-yl)amino)methyl)pyrrolidin-2-one] | 51 to 75 | 51 to 75 | 51 to 75 | 51 to 75 | 26 to 50 | 51 to 75 | 51 to 75 | 51 to 75 |  | 76 to 100 |  | 51 to 75
Cc1c(-c2ccn(C(C)C)n2)sc2nc(-c3nccn3C)nc(NCCc3ncc[nH]3)c12 [Compound 53, N-(2-(1H-Imidazol-2-yl)ethyl)-6-(1-isopropyl-1H-pyrazol-3-yl)-5-methyl-2-(1-methyl-1H-imidazol-2-yl)thieno[2,3-d]pyrimidin-4-amine] | 26 to 50 | 26 to 50 | 26 to 50 | 1 to 25 | 26 to 50 | 26 to 50 | 51 to 75 | 26 to 50 |  | 76 to 100 |  | 1 to 25
CO[C@H]1CC[C@H](Nc2nc(-c3nccn3C)nc3sc(-c4ccn(C(C)C)n4)c(C)c23)CC1 [Compound 54] | 76 to 100 | 51 to 75 | 76 to 100 | 51 to 75 | 76 to 100 | 76 to 100 | 76 to 100 | 76 to 100 |  | 51 to 75 |  | 26 to 50
CO[C@H]1CC[C@@H](Nc2nc(-c3nccn3C)nc3sc(-c4ccn(C(C)C)n4)c(C)c23)CC1 [Compound 55] | 26 to 50 | 1 to 25 | 26 to 50 | 51 to 75 | 26 to 50 | 26 to 50 | 1 to 25 | 1 to 25 |  | 51 to 75 |  | 0
Cc1c(-c2ccn(C(C)C)n2)sc2nc(-c3nccn3C)nc(NCc3ncc[nH]3)c12 [Compound 57, N-((1H-Imidazol-2-yl)methyl)-6-(1-isopropyl-1H-pyrazol-3-yl)-5-methyl-2-(1-methyl-1H-imidazol-2-yl)thieno[2,3-d]pyrimidin-4-amine] | 26 to 50 | 26 to 50 | 26 to 50 | 1 to 25 | 26 to 50 | 26 to 50 | 26 to 50 | 26 to 50 |  | 51 to 75 |  | 0
Cc1c(-c2ccn(C(C)C)n2)sc2nc(-c3nccn3C)nc(NCCc3cn(C)cn3)c12 [Compound 58, 6-(1-Isopropyl-1H-pyrazol-3-yl)-5-methyl-2-(1-methyl-1H-imidazol-2-yl)-N-(2-(1-methyl-1H-imidazol-4-yl)ethyl)thieno[2,3-d]pyrimidin-4-amine] | 51 to 75 | 51 to 75 | 51 to 75 | 26 to 50 | 76 to 100 | 76 to 100 | 76 to 100 | 76 to 100 |  | 76 to 100 |  | 26 to 50
COc1cccc(Nc2nc(-c3nccn3C)nc3sc(-c4ccn(C(C)C)n4)c(C)c23)n1.Cl [Compound 65, 6-(1-Isopropyl-1H-pyrazol-3-yl)-N-(6-methoxypyridin-2-yl)-5-methyl-2-(1-methyl-1H-imidazol-2-yl)thieno[2,3-d]pyrimidin-4-amine hydrochloride salt] | 51 to 75 | 26 to 50 | 51 to 75 | 26 to 50 | 76 to 100 | 26 to 50 | 51 to 75 | 26 to 50 |  | 51 to 75 |  | 26 to 50
COc1cc(Nc2nc(-c3nccn3C)nc3sc(-c4ccn(C(C)C)n4)c(C)c23)ccn1 [Compound 67, 6-(1-Isopropyl-1H-pyrazol-3-yl)-N-(2-methoxypyridin-4-yl)-5-methyl-2-(1-methyl-1H-imidazol-2-yl)thieno[2,3-d]pyrimidin-4-amine] | 51 to 75 | 51 to 75 | 51 to 75 | 0 | 51 to 75 | 26 to 50 | 51 to 75 | 26 to 50 |  | 26 to 50 |  | 1 to 25
COc1ccnc(Nc2nc(-c3nccn3C)nc3sc(-c4ccn(C(C)C)n4)c(C)c23)n1 [Compound 68, 6-(1-Isopropyl-1H-pyrazol-3-yl)-N-(4-methoxypyrimidin-2-yl)-5-methyl-2-(1-methyl-1H-imidazol-2-yl)thieno[2,3-d]pyrimidin-4-amine] | 51 to 75 | 76 to 100 | 76 to 100 | 76 to 100 | 51 to 75 | 76 to 100 | 76 to 100 | 76 to 100 |  | 76 to 100 |  | 76 to 100
Cc1c(-c2ccn(C(C)C)n2)sc2nc(-c3ccccn3)nc(N3CCC(COC(C)C)C3)c12 (stereo not shown) [Compound 72, 4-(3-(Isopropoxymethyl)pyrrolidin-1-yl)-6-(1-isopropyl-1H-pyrazol-3-yl)-5-methyl-2-(pyridin-2-yl)thieno[2,3-d]pyrimidine] | 0 | 0 | 0 | 51 to 75 | 1 to 25 | 0 | 0 | 1 to 25 |  | 1 to 25 |  | 0

Reference: patent US20230227466A1, “SUBSTITUTED THIENOPYRIMIDINES THAT INTERACT WITH THE RAS SUPERFAMILY FOR THE TREATMENT OF CANCERS, INFLAMMATORY DISEASES, RASOPATHIES, AND FIBROTIC DISEASE” (SHY Therapeutics, LLC, priority 2020, published 2023)
